Results: ChEMBL document CHEMBL4673219, “Novel 5,6-disubstituted pyrrolo[2,3-d]pyrimidine derivatives as broad spectrum antiproliferative agents: Synthesis, cell based assays, kinase profile and molecular docking study” (Bioorg Med Chem, 2018)

Columns and labels:
Assay type in all cases: functional
K562 [1] = assay: Growth inhibition of human K562 cells assessed as growth percentage at 100 uM incubated for 48 hrs by sulforhodamine B assay relative to control; settings: read-out: Activity
NCI-H522 = assay: Growth inhibition of human NCI-H522 cells assessed as growth percentage at 0.01 uM incubated for 48 hrs by sulforhodamine B assay relative to control; settings: read-out: Activity
SF-295 [2] = assay: Growth inhibition of human SF-295 cells assessed as growth percentage at 1 uM incubated for 48 hrs by sulforhodamine B assay relative to control; settings: read-out: Activity
786-0 = assay: Growth inhibition of human 786-0 cells assessed as growth percentage at 1 uM incubated for 48 hrs by sulforhodamine B assay relative to control; settings: read-out: Activity
MDA-MB-231 [3] = assay: Growth inhibition of human MDA-MB-231/ATCC cells incubated for 48 hrs by sulforhodamine B assay; settings: for TGI: MDA-MB-231
SNB-75 = assay: Growth inhibition of human SNB-75 cells incubated for 48 hrs by sulforhodamine B assay
A549 = assay: Growth inhibition of human A549/ATCC cells incubated for 48 hrs by sulforhodamine B assay
SW-620 [4] = assay: Growth inhibition of human SW-620 cells assessed as growth percentage at 100 uM incubated for 48 hrs by sulforhodamine B assay relative to control; settings: read-out: Activity
M14 = assay: Growth inhibition of human M14 cells assessed as growth percentage at 0.01 uM incubated for 48 hrs by sulforhodamine B assay relative to control; settings: read-out: Activity
U-251 [5] = assay: Growth inhibition of human U-251 cells assessed as growth percentage at 0.01 uM incubated for 48 hrs by sulforhodamine B assay relative to control; settings: read-out: Activity
U-251 [6] = assay: Growth inhibition of human U-251 cells assessed as growth percentage at 0.1 uM incubated for 48 hrs by sulforhodamine B assay relative to control; settings: read-out: Activity
HT-29 = assay: Growth inhibition of human HT-29 cells assessed as growth percentage at 0.01 uM incubated for 48 hrs by sulforhodamine B assay relative to control; settings: read-out: Activity
MOLT-4 [7] = assay: Growth inhibition of human MOLT-4 cells assessed as growth percentage at 10 uM incubated for 48 hrs by sulforhodamine B assay relative to control; settings: read-out: Activity
SK-BR-3 = assay: Antiproliferative activity against human SK-BR-3 cells assessed as cell growth inhibition measured after 72 hrs by MTT assay
SF-539 = assay: Growth inhibition of human SF-539 cells incubated for 48 hrs by sulforhodamine B assay
SNB-19 = assay: Growth inhibition of human SNB-19 cells assessed as growth percentage at 1 uM incubated for 48 hrs by sulforhodamine B assay relative to control; settings: read-out: Activity
TK-10 [8] = assay: Growth inhibition of human TK-10 cells assessed as growth percentage at 10 uM incubated for 48 hrs by sulforhodamine B assay relative to control; settings: read-out: Activity
HCT-116 = assay: Growth inhibition of human HCT-116 cells assessed as growth percentage at 0.01 uM incubated for 48 hrs by sulforhodamine B assay relative to control; settings: read-out: Activity
TK-10 [9] = assay: Growth inhibition of human TK-10 cells assessed as growth percentage at 1 uM incubated for 48 hrs by sulforhodamine B assay relative to control; settings: read-out: Activity
U-251 [10] = assay: Growth inhibition of human U-251 cells assessed as growth percentage at 1 uM incubated for 48 hrs by sulforhodamine B assay relative to control; settings: read-out: Activity
BT-549 = assay: Growth inhibition of human BT-549 cells assessed as growth percentage at 0.01 uM incubated for 48 hrs by sulforhodamine B assay relative to control; settings: read-out: Activity
HOP-92 = assay: Growth inhibition of human HOP-92 cells assessed as growth percentage at 0.1 uM incubated for 48 hrs by sulforhodamine B assay relative to control; settings: read-out: Activity
SW-620 [11] = assay: Growth inhibition of human SW-620 cells assessed as growth percentage at 1 uM incubated for 48 hrs by sulforhodamine B assay relative to control; settings: read-out: Activity
MCF7 = assay: Growth inhibition of human MCF7 cells assessed as growth percentage at 0.1 uM incubated for 48 hrs by sulforhodamine B assay relative to control; settings: read-out: Activity
SK-OV-3 [12] = assay: Growth inhibition of human SK-OV-3 cells assessed as growth percentage at 0.01 uM incubated for 48 hrs by sulforhodamine B assay relative to control; settings: read-out: Activity
CCRF-CEM = assay: Growth inhibition of human CCRF-CEM cells assessed as growth percentage at 1 uM incubated for 48 hrs by sulforhodamine B assay relative to control; settings: read-out: Activity
MOLT-4 [13] = assay: Growth inhibition of human MOLT-4 cells incubated for 48 hrs by sulforhodamine B assay
UACC-257 = assay: Growth inhibition of human UACC-257 cells assessed as growth percentage at 10 uM incubated for 48 hrs by sulforhodamine B assay relative to control; settings: read-out: Activity
SF-295 [14] = assay: Growth inhibition of human SF-295 cells assessed as growth percentage at 0.01 uM incubated for 48 hrs by sulforhodamine B assay relative to control; settings: read-out: Activity
Hs-578T = assay: Growth inhibition of human Hs-578T cells assessed as growth percentage at 0.1 uM incubated for 48 hrs by sulforhodamine B assay relative to control; settings: read-out: Activity
A498 = assay: Growth inhibition of human A498 cells assessed as growth percentage at 100 uM incubated for 48 hrs by sulforhodamine B assay relative to control; settings: read-out: Activity
RPMI-8226 = assay: Growth inhibition of human RPMI-8226 cells assessed as growth percentage at 1 uM incubated for 48 hrs by sulforhodamine B assay relative to control; settings: read-out: Activity
LOX IMVI = assay: Growth inhibition of human LOX IMVI cells assessed as growth percentage at 10 uM incubated for 48 hrs by sulforhodamine B assay relative to control; settings: read-out: Activity
SK-OV-3 [15] = assay: Growth inhibition of human SK-OV-3 cells assessed as growth percentage at 100 uM incubated for 48 hrs by sulforhodamine B assay relative to control; settings: read-out: Activity
MDA-MB-231 [16] = assay: Growth inhibition of human MDA-MB-231/ATCC cells assessed as growth percentage at 100 uM incubated for 48 hrs by sulforhodamine B assay relative to control; settings: read-out: Activity
UO-31 = assay: Growth inhibition of human UO-31 cells assessed as growth percentage at 100 uM incubated for 48 hrs by sulforhodamine B assay relative to control; settings: read-out: Activity
OVCAR-8 = assay: Growth inhibition of human OVCAR-8 cells incubated for 48 hrs by sulforhodamine B assay; settings: for CC50: read-out: LC50 (the source's name)
K562 [17] = assay: Growth inhibition of human K562 cells incubated for 48 hrs by sulforhodamine B assay

## Nc1nc2[nH]c(CN3CCN(c4cc(Cl)cc(Cl)c4)CC3)c(CN3CCN(c4cc(Cl)cc(Cl)c4)CC3)c2c(=O)[nH]1
K562 [1]
  growth at 100 µM: 3%
NCI-H522
  growth at 0.01 µM: 95%
SF-295 [2]
  growth at 1 µM: 89%
786-0
  growth at 1 µM: 82%
MDA-MB-231 [3]; Homo sapiens
  TGI: 3.98 µM
MDA-MB-231 [3]; Homo sapiens, MDA-MB-231, 48 h
  GI50: 2.01 µM
SNB-75
  GI50: 1.42 µM
  TGI: 2.74 µM
A549; Homo sapiens, A549
  TGI: 3.73 µM
A549; Homo sapiens, A549, 48 h
  GI50: 1.82 µM
SW-620 [4]
  growth at 100 µM: -79%
M14
  growth at 0.01 µM: 93%
U-251 [5]
  growth at 0.01 µM: 99%
U-251 [6]
  growth at 0.1 µM: 97%
HT-29
  growth at 0.01 µM: 105%
MOLT-4 [7]
  growth at 10 µM: 23.6%
SK-BR-3
  GI50: 3.22 µM
SF-539
  GI50: 1.72 µM
  TGI: 3.26 µM
SNB-19
  growth at 1 µM: 89%
TK-10 [8]
  growth at 10 µM: 77.1%
HCT-116
  growth at 0.01 µM: 100%
TK-10 [9]
  growth at 1 µM: 100%
U-251 [10]
  growth at 1 µM: 90%
BT-549
  growth at 0.01 µM: 91%
HOP-92
  growth at 0.1 µM: 73%
SW-620 [11]
  growth at 1 µM: 88%
MCF7
  growth at 0.1 µM: 90%
SK-OV-3 [12]
  growth at 0.01 µM: 95%
CCRF-CEM
  growth at 1 µM: 87%
MOLT-4 [13]; Homo sapiens, MOLT-4, 48 h
  GI50: 2.58 µM
  TGI: 8.56 µM
UACC-257
  growth at 10 µM: 97.6%
SF-295 [14]
  growth at 0.01 µM: 87%
Hs-578T
  growth at 0.1 µM: 88%
A498
  growth at 100 µM: -72%
RPMI-8226
  growth at 1 µM: 92%
LOX IMVI
  growth at 10 µM: 26.3%
SK-OV-3 [15]
  growth at 100 µM: -74%
MDA-MB-231 [16]
  growth at 100 µM: -30%
UO-31
  growth at 100 µM: -57%
OVCAR-8; Homo sapiens, OVCAR-8, 48 h
  GI50: 2.05 µM
  TGI: 4.48 µM
K562 [17]; Homo sapiens, K562, 48 h
  GI50: 2.33 µM

## CCCCCCCC(=O)Nc1nc2[nH]c(CN3CCN(Cc4cccc(F)c4)CC3)c(CN3CCN(Cc4cccc(F)c4)CC3)c2c(=O)[nH]1
K562 [1]
  growth at 100 µM: -1%
NCI-H522
  growth at 0.01 µM: 106%
SF-295 [2]
  growth at 1 µM: 74%
786-0
  growth at 1 µM: 83%
MDA-MB-231 [3]; 48 h
  GI50: 0.59 µM
MDA-MB-231 [3]; Homo sapiens
  TGI: 1.96 µM
MDA-MB-231 [3]; Homo sapiens, MDA-MB-231, 48 h
  GI50: 0.587 µM
MDA-MB-231 [3]; Homo sapiens, MDA-MB-231, read-out: LC50 (the source's name)
  CC50: 5.38 µM
SNB-75
  GI50: 1.34 µM
  LC50 (lethal concentration, 50% cell kill): 5.28 µM
  TGI: 2.66 µM
A549; 48 h
  GI50: 0.34 µM
A549; Homo sapiens, A549
  LC50: 4.36 µM
  TGI: 1.24 µM
A549; Homo sapiens, A549, 48 h
  GI50: 0.343 µM
SW-620 [4]
  growth at 100 µM: -69%
M14
  growth at 0.01 µM: 100%
U-251 [5]
  growth at 0.01 µM: 97%
U-251 [6]
  growth at 0.1 µM: 92%
HT-29
  growth at 0.01 µM: 96%
MOLT-4 [7]
  growth at 10 µM: -40%
SK-BR-3
  GI50: 3.91 µM
SF-539
  GI50: 1.56 µM
SNB-19
  growth at 1 µM: 82%
TK-10 [8]
  growth at 10 µM: -65%
HCT-116
  growth at 0.01 µM: 95%
TK-10 [9]
  growth at 1 µM: 94%
U-251 [10]
  growth at 1 µM: -88%
BT-549
  growth at 0.01 µM: 110%
HOP-92
  growth at 0.1 µM: 86%
SW-620 [11]
  growth at 1 µM: -72%
MCF7
  growth at 0.1 µM: 87%
SK-OV-3 [12]
  growth at 0.01 µM: 108%
CCRF-CEM
  growth at 1 µM: -17%
MOLT-4 [13]; 48 h
  GI50: 0.26 µM
  LC50 (concentration killing 50% of cells): > 100 µM
  TGI: 0.74 µM
MOLT-4 [13]; Homo sapiens, MOLT-4, 48 h
  GI50: 0.258 µM
  LC50 (concentration killing 50% of cells): 100 µM
  TGI: 0.736 µM
UACC-257
  growth at 10 µM: -18.5%
SF-295 [14]
  growth at 0.01 µM: 97%
Hs-578T
  growth at 0.1 µM: 96%
A498
  growth at 100 µM: -98%
RPMI-8226
  growth at 1 µM: 13%
LOX IMVI
  growth at 10 µM: -88.5%
SK-OV-3 [15]
  growth at 100 µM: -99%
MDA-MB-231 [16]
  growth at 100 µM: -66%
UO-31
  growth at 100 µM: -81%
OVCAR-8; 48 h
  GI50: 0.21 µM
  TGI: 0.41 µM
  CC50: 0.8 µM
OVCAR-8; Homo sapiens, OVCAR-8, 48 h
  GI50: 0.205 µM
  TGI: 0.405 µM
  CC50: 0.801 µM
K562 [17]; 48 h
  GI50: 0.21 µM
  LC50 (concentration killing 50% of cells): > 100 µM
  TGI: 0.55 µM
K562 [17]; Homo sapiens, K562, 48 h
  GI50: 0.205 µM
  LC50 (concentration killing 50% of cells): 100 µM
  TGI: 0.545 µM
